Paper PMC7288026, “Novel Class of Chalcone Oxime Ethers as Potent Monoamine Oxidase-B and Acetylcholinesterase Inhibitors” (Molecules, 2020)
“And” between values parts separate entries of the source, which are not always exact repeats. Equal values may be shown once. Read-outs that look alike come from different tables or passages of the source.

How the values were obtained:
[1] = biological target: T1, recombinant hMAO-A (Homo sapiens, UniProt P21397); experiment: MAO-A inhibition assay (kynuramine substrate); format: biochemical; conditions: for IC50: mean ± standard error of duplicates, reference compounds after 30 min preincubation with enzyme
T1 construct: purchased Sigma-Aldrich
T1 sequence (P21397 1-527): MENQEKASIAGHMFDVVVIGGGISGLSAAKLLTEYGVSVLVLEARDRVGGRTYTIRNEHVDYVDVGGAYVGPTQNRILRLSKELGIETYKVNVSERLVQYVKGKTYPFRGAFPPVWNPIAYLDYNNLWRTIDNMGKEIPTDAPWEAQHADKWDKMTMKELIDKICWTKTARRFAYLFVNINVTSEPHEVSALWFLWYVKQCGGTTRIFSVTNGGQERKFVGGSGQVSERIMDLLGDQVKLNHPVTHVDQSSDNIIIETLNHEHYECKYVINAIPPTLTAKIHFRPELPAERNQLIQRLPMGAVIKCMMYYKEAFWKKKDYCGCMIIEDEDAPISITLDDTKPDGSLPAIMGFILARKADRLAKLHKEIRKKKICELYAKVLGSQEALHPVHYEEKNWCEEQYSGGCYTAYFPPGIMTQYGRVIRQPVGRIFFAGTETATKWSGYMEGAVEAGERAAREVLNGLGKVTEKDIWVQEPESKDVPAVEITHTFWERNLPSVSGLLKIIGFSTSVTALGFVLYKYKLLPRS
Procedure: Recombinant hMAO-A and hMAO-B activities were assayed while using kynuramine (0.06 mM) and benzylamine (0.3 mM) as substrates, respectively, as described previously. […] AChE activity was measured using Type VI-S from Electrophorus electricus in the presence of 0.5 mM 5,5’-dithiobis(2-nitrobenzoic acid) and 0.5 mM acetylthiocholine iodide, as described previously. Enzymes and chemicals were purchased from Sigma–Aldrich (St. Louis, MO, USA).
AChE inhibitory activities were also determined, except at a concentration of 10 µM. […] Kinetic experiments were carried out at five substrate and three inhibitor concentrations.

[2] = biological target: T2, MAO-B (Homo sapiens, UniProt P27338); experiment: biochemical; conditions: for SI (selectivity index, ratio of IC50 MAO-A to MAO-B): MAO-A vs. MAO-B IC50 ratio; for IC50: mean ± standard error of duplicates, reference compounds after 30 min preincubation with enzyme, read-out: IC50 (µM) MAO-B; for remaining activity at 1 µM: read-out: Residual Activity (%) MAO-B (1.0 µM)
T2 construct: purchased Sigma-Aldrich
T2 sequence (P27338 1-520): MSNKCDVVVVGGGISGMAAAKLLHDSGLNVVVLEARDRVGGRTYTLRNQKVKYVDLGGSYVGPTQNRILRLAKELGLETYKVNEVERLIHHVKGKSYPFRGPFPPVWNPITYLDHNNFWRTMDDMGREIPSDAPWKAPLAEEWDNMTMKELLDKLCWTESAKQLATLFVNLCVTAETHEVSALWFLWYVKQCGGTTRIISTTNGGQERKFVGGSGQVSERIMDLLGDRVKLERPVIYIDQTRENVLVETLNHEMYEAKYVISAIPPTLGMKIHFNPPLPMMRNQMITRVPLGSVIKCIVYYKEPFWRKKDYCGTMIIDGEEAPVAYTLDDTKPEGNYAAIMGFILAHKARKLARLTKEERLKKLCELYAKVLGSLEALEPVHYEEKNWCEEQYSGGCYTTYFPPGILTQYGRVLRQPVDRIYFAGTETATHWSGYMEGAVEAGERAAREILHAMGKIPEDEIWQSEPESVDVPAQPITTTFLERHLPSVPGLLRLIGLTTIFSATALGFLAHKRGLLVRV
Procedure: Recombinant hMAO-A and hMAO-B activities were assayed while using kynuramine (0.06 mM) and benzylamine (0.3 mM) as substrates, respectively, as described previously. […] AChE activity was measured using Type VI-S from Electrophorus electricus in the presence of 0.5 mM 5,5’-dithiobis(2-nitrobenzoic acid) and 0.5 mM acetylthiocholine iodide, as described previously. Enzymes and chemicals were purchased from Sigma–Aldrich (St. Louis, MO, USA). […]

[3] = biological target: T3, AChE (Type VI-S from Electrophorus electricus) (Electrophorus electricus, UniProt O42275); experiment: AChE inhibition assay (DTNB / acetylthiocholine iodide); format: biochemical; conditions: for remaining activity at 10 µM / Residual Activity (%) AChE (10 µM): mean ± standard error of duplicate experiments
T3 construct: purchased Sigma-Aldrich Type VI-S
T3 sequence (O42275 24-633): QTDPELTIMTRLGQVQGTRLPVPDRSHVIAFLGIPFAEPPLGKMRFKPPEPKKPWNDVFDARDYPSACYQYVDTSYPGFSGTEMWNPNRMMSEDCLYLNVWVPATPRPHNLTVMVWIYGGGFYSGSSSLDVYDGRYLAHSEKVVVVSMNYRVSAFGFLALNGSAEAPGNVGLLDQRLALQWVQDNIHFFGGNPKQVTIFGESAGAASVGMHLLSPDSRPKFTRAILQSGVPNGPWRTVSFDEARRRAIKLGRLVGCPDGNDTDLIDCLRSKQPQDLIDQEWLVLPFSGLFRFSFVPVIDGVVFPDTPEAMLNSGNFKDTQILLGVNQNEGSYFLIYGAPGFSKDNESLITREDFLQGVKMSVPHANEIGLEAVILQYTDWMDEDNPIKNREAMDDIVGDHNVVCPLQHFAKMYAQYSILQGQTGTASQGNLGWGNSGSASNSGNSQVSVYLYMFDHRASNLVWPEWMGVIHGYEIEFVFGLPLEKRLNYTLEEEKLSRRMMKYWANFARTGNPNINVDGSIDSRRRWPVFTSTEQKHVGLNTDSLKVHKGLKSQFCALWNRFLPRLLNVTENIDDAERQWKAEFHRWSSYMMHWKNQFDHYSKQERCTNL
Procedure: AChE activity was measured using Type VI-S from Electrophorus electricus in the presence of 0.5 mM 5,5’-dithiobis(2-nitrobenzoic acid) and 0.5 mM acetylthiocholine iodide, as described previously. Enzymes and chemicals were purchased from Sigma–Aldrich (St. Louis, MO, USA).
Kinetic experiments were carried out at five substrate and three inhibitor concentrations.

[4] = compound at 1.0 µM, mean ± standard error of duplicate experiments, read-out: Residual Activity (%) MAO-A (1.0 µM)
[5] = compound at 10 µM, read-out: Residual Activity (%) AChE (10 µM)
[6] = read-out: Residual Activity (%) MAO-A (1.0 µM), compound at 1.0 µM, mean ± standard error of duplicate experiments
[7] = compound at 1.0 µM, mean ± standard error of duplicate experiments

| SMILES | remaining activity at 1 µM [1, 4] [%] | IC50 [1] [µM] | SI (selectivity index, ratio of IC50 MAO-A to MAO-B) [2] | IC50 [2] [µM] | remaining activity at 1 µM [2] [%] | IC50 [3] [µM] | remaining activity at 10 µM [3, 5] [%] | remaining activity at 1 µM [1, 6] [%] | remaining activity at 10 µM ([3]; read-out: Residual Activity (%) AChE (10 µM), compound at 10 µM) [%] | Residual Activity (%) AChE (10 µM) ([3]; compound at 10 µM) [%] | MAO-B potency relative to clorgyline (times more potent) [2] | MAO-B potency relative to lazabemide (times more potent) [2] [times] | remaining activity at 1 µM [2, 7] [%] | Residual Activity (%) MAO-A (1.0 µM) ([1]; compound at 1.0 µM, mean ± standard error of duplicate experiments, 1 µM) [%] | MAO-A potency relative to pargyline (times more potent) ([1]; ratio of IC50 values) [times] | MAO-A potency relative to toloxatone (times more potent) ([1]; ratio of IC50 values) [times] |
| --- | --- | --- | --- | --- | --- | --- | --- | --- | --- | --- | --- | --- | --- | --- | --- | --- |
| COc1ccc(C(=O)/C=C/c2ccc(O/N=C(\C)c3ccccc3)cc2)cc1 [COE-1] | 94.4 ± 2.99 | > 10 | >35.7 | 0.28 ± 0.041 | 29.9 ± 5.25 | > 40 | 77.6 ± 2.64 |  |  |  |  |  |  |  |  |  |
| COc1ccc(C(=O)/C=C/c2ccc(O/N=C(\C)c3ccc(OC)cc3)cc2)cc1 [COE-2] | 69.9 ± 0.51 | > 10 | >38.5 | 0.26 ± 0.055 | 27.6 ± 2.44 | 15.2 ± 0.55 | 66.5 ± 3.36 |  |  |  |  |  |  |  |  |  |
| COc1ccc(C(=O)/C=C/c2ccc(ON=C(c3ccccc3)c3ccccc3)cc2)cc1 [COE-3] | 87.3 ± 1 | > 10 | >208.3 | 0.048 ± 0.021 | 21.6 ± 4.88 | > 40 | 77.1 ± 0.66 |  |  |  |  |  |  |  |  |  |
| COc1ccc(C(=O)/C=C/c2ccc(O/N=C3\CCc4ccccc43)cc2)cc1 [COE-4] |  | 19.3 ± 0.21 | 32.7 | 0.059 ± 0.012 | 4.31 ± 1.22 | > 40 |  | 83.7 ± 1.54 | 62.1 ± 1.51 |  |  |  |  |  |  |  |
| C/C(=N\Oc1ccc(/C=C/C(=O)c2ccccc2)cc1)c1ccc(F)cc1 [COE-5] | 95.1 ± 2.68 | > 10 | >8.9 | 1.12 ± 0.1 | 57.5 ± 7.01 | 7.06 ± 1.5 | < 50 |  |  | 46.5 ± 0.71 |  |  |  |  |  |  |
| O=C(/C=C/c1ccc(ON=C(c2ccccc2)c2ccccc2)cc1)c1ccc(F)cc1 [COE-7] | 91.7 ± 6.43 | 11 ± 1.22 | 392.9 | 0.028 ± 0.0016 | 2.48 ± 0.15 | > 40 | 76.2 ± 1.02 |  |  |  | 68 times and 67 times | 1.5 |  |  |  |  |
| COc1cccc(C(=O)/C=C/c2ccc(O/N=C(\C)c3cccc4ccccc34)cc2)c1 [COE-8] | 68.6 ± 2.74 | 7.68 ± 0.34 | 182.9 | 0.042 ± 0.021 |  | > 40 | 70.7 ± 3.26 |  |  |  |  |  | 10.5 ± 0.21 |  |  |  |
| C/C(=N\Oc1ccc(/C=C/C(=O)c2cccc3ccccc23)cc1)c1cccs1 [COE-9] |  | 7.64 ± 0.16 | 20.6 | 0.037 ± 0.0057 | 9.91 ± 1.83 | 8.39 ± 2.14 | < 50 | 71.4 ± 0.51 |  | 46.7 ± 4.27 |  |  |  |  |  |  |
| COc1ccc(/C=C/C(=O)c2ccc(ON=C3CCCCC3)cc2)cc1 [COE-10] | 67.1 ± 2.02 | > 10 | >47.6 | 0.21 ± 0.01 | 21.6 ± 1.22 | 9.42 ± 0.031 | < 50 |  |  | 47.6 ± 0.93 |  |  |  |  |  |  |
| COc1ccc(/C=C/C(=O)c2ccc(O/N=C(\C)c3ccc(F)cc3)cc2)cc1 [COE-11] | 86 ± 6.58 | > 10 | >5.5 | 1.82 ± 0.022 | 68.5 ± 1.83 | > 40 | 87.2 ± 0.47 |  |  |  |  |  |  |  |  |  |
| Cc1ccc(/C=C/C(=O)c2ccc(O/N=C3\CCc4ccccc43)cc2)cc1 [COE-12] | 95.7 ± 2.02 | > 10 | >37.0 | 0.27 ± 0.056 |  | > 40 | 72 ± 1.95 |  |  |  |  |  | 40.5 ± 0.1 |  |  |  |
| COc1cccc(/C=C/C(=O)c2ccc(O/N=C(\C)c3cccs3)cc2)c1 [COE-13] | < 50 | 0.88 ± 0.03 | 6.8 | 0.13 ± 0.0069 | 31.9 ± 9.75 | > 40 | 57.6 ± 1.96 |  |  |  |  |  |  | 46.2 ± 1.07 | 2.8 | 1.1 |
| COc1ccc(/C=C/C(=O)c2ccc(O/N=C(\C)c3cccc4ccccc34)cc2)cc1OC [COE-14] | 91.1 ± 3.84 | > 10 | >6.3 | 1.58 ± 0.031 | 63.7 ± 1.39 | 13.2 ± 0.84 | 62.2 ± 4.19 |  |  |  |  |  |  |  |  |  |
| COc1cc(/C=C/C(=O)c2ccc(ON=C(c3ccccc3)c3ccccc3)cc2)cc(OC)c1OC [COE-15] | 95 ± 3.03 | > 10 | >10.5 | 0.95 ± 0.029 | 36.9 ± 9.49 | > 40 | 56.9 ± 1.4 |  |  |  |  |  |  |  |  |  |
| COc1ccc(C(/C=C/c2ccccc2)=N\Oc2ccc(C(C)=O)cc2)cc1 [COE-16] | 93.4 ± 3.44 | > 10 |  | > 10 | 97.8 ± 0.08 | > 40 | 77.3 ± 6.62 |  |  |  |  |  |  |  |  |  |
